Measured values as given in patent publication US12514929B2, “Deformable nano-scale vehicles (DNVS) for trans-blood brain barrier, trans-mucosal, and transdermal drug delivery” (The Regents of the University of California, priority 2017, dated 2026).

Tests used:
Aβ40 = test: Effect of galangin and progalangin on Aβ40; design: species or system mice; settings: mouse, in vivo
Text: (§1) Progalangin reduced Aβ40 as well as Aβ42 levels (FIG. 19B).

[1] = Pharmacokinetics of galangin and progalangin in mice; format: in vivo; settings: at 1 h
Text: as §1

Aβ42 = test: Effect of galangin and progalangin on Aβ42; design: species or system mice; settings: mouse, in vivo
Text: as §1

O=c1c(O)c(-c2ccccc2)oc2cc(O)cc(O)c12 [Galangin, galangin]
Aβ40 levels (Aβ40): reduce Aβ40 levels
Brain Cmax [1]: approximately 50 ng/g
Aβ42 levels (Aβ42): no effect
